Measurements taken from ChEMBL document CHEMBL1671772, “Predicting hERG activities of compounds from their 3D structures: development and evaluation of a global descriptors based QSAR model” (Eur J Med Chem, 2011).

Columns and labels:
[1] = biological target: T1, Voltage-gated inwardly rectifying potassium channel KCNH2 (Homo sapiens, UniProt Q12809)
[2] = biological target: T1, Voltage-gated inwardly rectifying potassium channel KCNH2; remark: listed apart in the source

T1 sequence (Q12809 whole entry): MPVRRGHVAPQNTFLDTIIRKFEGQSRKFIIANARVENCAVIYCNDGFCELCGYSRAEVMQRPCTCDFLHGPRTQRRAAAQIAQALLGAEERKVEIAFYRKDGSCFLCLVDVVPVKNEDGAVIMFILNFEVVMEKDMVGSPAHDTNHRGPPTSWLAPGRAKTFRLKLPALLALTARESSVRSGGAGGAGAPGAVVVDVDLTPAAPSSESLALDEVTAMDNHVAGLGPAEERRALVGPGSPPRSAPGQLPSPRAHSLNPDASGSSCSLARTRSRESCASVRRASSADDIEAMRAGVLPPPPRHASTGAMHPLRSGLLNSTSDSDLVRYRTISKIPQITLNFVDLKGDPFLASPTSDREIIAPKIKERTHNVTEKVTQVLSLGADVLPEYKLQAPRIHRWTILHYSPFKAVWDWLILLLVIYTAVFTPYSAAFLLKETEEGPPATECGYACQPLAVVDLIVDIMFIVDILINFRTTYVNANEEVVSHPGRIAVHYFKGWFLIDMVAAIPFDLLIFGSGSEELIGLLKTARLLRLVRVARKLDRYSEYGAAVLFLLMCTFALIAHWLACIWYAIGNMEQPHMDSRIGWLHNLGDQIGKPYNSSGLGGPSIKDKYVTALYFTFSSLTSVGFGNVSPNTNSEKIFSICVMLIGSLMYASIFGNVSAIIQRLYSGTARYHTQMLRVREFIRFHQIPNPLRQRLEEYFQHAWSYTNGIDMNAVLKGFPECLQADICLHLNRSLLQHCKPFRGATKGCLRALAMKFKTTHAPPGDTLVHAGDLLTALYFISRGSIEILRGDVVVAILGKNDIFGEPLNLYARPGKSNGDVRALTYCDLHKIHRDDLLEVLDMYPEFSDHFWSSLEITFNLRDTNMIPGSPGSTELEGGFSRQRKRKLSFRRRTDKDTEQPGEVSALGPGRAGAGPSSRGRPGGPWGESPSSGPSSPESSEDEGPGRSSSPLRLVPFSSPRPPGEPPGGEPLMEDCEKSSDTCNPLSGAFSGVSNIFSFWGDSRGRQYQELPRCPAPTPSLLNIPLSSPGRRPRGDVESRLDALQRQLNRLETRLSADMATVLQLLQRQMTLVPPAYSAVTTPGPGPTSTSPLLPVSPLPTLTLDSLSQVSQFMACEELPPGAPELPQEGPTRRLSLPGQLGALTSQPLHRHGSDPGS

SMILES | IC50 [1] | pIC50 [2]
CCNCCc1cccc(C(F)(F)F)c1 | 537 µM | –
CC(C)c1cn(-c2ccc(F)cc2)c2ccc(Cl)cc12 | 10 µM | –
CC(=O)NC(=O)C1CCC(C2N=CC(c3cccc(Br)c3)=N2)CC1 (stereo not drawn) | 0.501 µM | –
CCCC1NC(C)C2C(=O)N=C(c3cc(S(=O)(=O)N4CCN(CC)CC4)ccc3OCC)NN12 (stereo not drawn) | 12.9 µM | –
CCC(=O)O[C@@](Cc1ccccc1)(c1ccccc1)[C@@H](C)CN(C)C [LEVOPROPOXYPHENE] | 2.75 µM | –
CC(C)(CN1CCC(=C2c3ccc(F)cc3COc3ccccc32)CC1)C(=O)O | 10 µM | –
CCC(O)c1cn(-c2ccc(F)cc2)c2ccc(Cl)cc12 (stereo not drawn) | – | 2.66
Cc1cccc(C)c1NC(=O)C1CCCCN1C (stereo not drawn) [MEPIVACAINE] | 155 µM | –
CN(C)CCCn1cc(C2=C(c3c[nH]c4ccccc34)C(=O)NC2=O)c2ccccc21 [GF-109203] | 1 µM | –
COC(=O)C1=CCC2CCC1N2C (stereo in doubt; 21) | 8.91 µM | –
COC(=O)[C@@H]1[C@H]2CC[C@@H](C[C@@H]1O)N2C | 417 µM | –
O=C(OC1CC2CC3CC(C1)N2CC3O)c1c[nH]c2ccccc12 (stereo not drawn) [MDL-74156] | 12 µM | –
CCOC(=O)C1C(OC(=O)c2ccccc2)CC2CCC1N2C (stereo not drawn) | 1.2 µM | –
COc1ccc(CC(=O)Nc2cc3c(cc2[N+](=O)[O-])OC(C)(C)[C@H](O)[C@H]3NC2CC2)cc1 | 43.7 µM | –
CN1C2CCC1C(C(=O)O)C(OC(=O)c1ccccc1)C2 (stereo not drawn) | 3980 µM | –
CCCc1cn(-c2ccc(F)cc2)c2ccc(Cl)cc12 | – | 1.59
NC(=O)N1c2ccccc2C=Cc2ccccc21 [CARBAMAZEPINE] | 105 µM | –
CN1CC(=O)N2[C@H](c3ccc4c(c3)OCO4)c3[nH]c4ccccc4c3C[C@@H]2C1=O | 100 µM | –
Fc1ccc(-n2cc(C3CCNCC3)c3cc(Cl)ccc32)cc1 | 0.204 µM | –
COc1ccc(CC(=O)NCc2ccccc2-c2ccccc2C(=O)NCCc2cccnc2)cc1 | 10 µM | –

SMILES | IC50 [1] | pIC50 [2]
CCc1cn(-c2ccc(F)cc2)c2ccc(Cl)cc12 | – | 2.46
COC(=O)C1=CCC2CCC1N2C (stereo in doubt; 41) | 170 µM | –
O=C1NCCN1CCN1CCC(c2cn(-c3ccc(F)cc3)c3ccccc23)CC1 | 0.00692 µM | –
CCOc1cc(N)c(Cl)cc1C(=O)NCC1CN(Cc2ccc(F)cc2)CCO1 (stereo not drawn) [MOSAPRIDE] | 4.79 µM | –
CC(C)(C)c1ccc2c(ccn2-c2ccc(F)cc2)c1 | 10 µM | –
O=C1CCC(c2ccc(Nc3ccncc3)cc2)=NN1 [SENAZODAN] | 1.05 µM | –
COC(=O)C1=C(C)NC(C)=C(C(=O)OC(C)C)C1c1cccc2nonc12 (stereo not drawn) [ISRADIPINE] | 50.1 µM | –
O=C1NCCN1CCN1CC=C(c2cn(-c3ccc(F)cc3)c3ccc(Cl)cc23)CC1 | 0.01 µM | –
O=C1NCCN1CCN1CCC(C2CN(c3ccc(F)cc3)c3ccccc32)CC1 (stereo not drawn) | 0.0234 µM | –
CCOP(=O)(Sc1ccccc1)Sc1ccccc1 [EDIFENPHOS] | 50.1 µM | –
CC(C)(C)c1ccc(NC(=O)N2CCN(c3ncccc3Cl)CC2)cc1 | 1 µM | –
COc1cc(N)c(Cl)cc1C(=O)NC1CCN(Cc2ccccc2)CC1 [CLEBOPRIDE] | 0.603 µM | –
COc1ccc2cc3[n+](cc2c1OC)CCc1cc2c(cc1-3)OCO2 [BERBERINE] | 66.1 µM | –
CCC1OC(=O)C(C)C(OC2CC(C)(OC)C(O)C(C)O2)C(C)C(OC2OC(C)CC(N(C)C)C2O)C(C)(OC)CC(C)C(=O)C(C)C(O)C1(C)O (stereo not drawn) | 33.1 µM | –
COc1ccc(Cc2nccc3cc(OC)c(OC)cc23)cc1OC [PAPAVERINE] | 7.24 µM | –
CCCC(C)C1(CC)C(=O)NC(=O)NC1=O (stereo not drawn) [PENTOBARBITAL] | 132 µM | –
O=C1NCCN1CCN1CCC(c2cn(C3CCCCC3)c3ccc(Cl)cc23)CC1 | 0.138 µM | –
Cc1cccc(C)c1OCC(C)N (stereo not drawn) [MEXILETINE] | 10 µM | –
CCCCN1CCCC[C@H]1C(=O)Nc1c(C)cccc1C [LEVOBUPIVACAINE] | 20.9 µM | –
CO[C@@H]1[C@@H](O[C@@H]2O[C@H](C)[C@@H](O[C@H]3C[C@@](C)(O)[C@@H](OC(=O)CC(C)C)[C@H](C)O3)[C@H](N(C)C)[C@H]2O)[C@@H](CC=O)C[C@@H](C)[C@@H](O)/C=C\C=C\C[C@@H](C)OC(=O)C[C@H]1OC(C)=O | 102 µM | –

SMILES | IC50 [1] | pIC50 [2]
Cc1cc2c(s1)Nc1ccccc1N=C2N1CCN(C)CC1 [OLANZAPINE] | 0.204 µM | –
CC(C)(C)N1CCC(c2ccccc2)(c2ccccc2)CC1 [BUDIPINE] | 0.851 µM | –
Clc1ccccc1C(c1ccccc1)(c1ccccc1)n1ccnc1 [CLOTRIMAZOLE] | 3.02 µM | –
CC(=O)c1cn(-c2ccc(F)cc2)c2ccc(Cl)cc12 | 10 µM | –
Cc1cn2c(N)c(Cl)cc(C(=O)NCC3CCN(CC(C)C)CC3)c2n1 | 2.57 µM | –
O=C(OC1Cc2c(O)cc(O)cc2OC1c1cc(O)c(O)c(O)c1)c1cc(O)c(O)c(O)c1 (stereo not drawn) | 6.03 µM | –
O=C(NCCN1CCOCC1)c1ccc(Cl)cc1 [MOCLOBEMIDE] | 79.4 µM | –
CC(C(O)c1ccc(O)cc1)N1CCC(Cc2ccccc2)CC1 (stereo not drawn) [IFENPRODIL] | 0.1 µM | –
c1ccc(-c2[nH]c3ccccc3c2C2CC3CCC(C2)N3c2ccccc2)cc1 (stereo not drawn) | 0.0178 µM | –
CCCN1C[C@H](CSC)C[C@@H]2c3cccc4[nH]cc(c34)C[C@H]21 [PERGOLIDE] | 0.12 µM | –
CCCCCCCN(CC)CCCCc1ccc([N+](=O)[O-])cc1 | 0.00219 µM | –
CCC(O)(CC)c1cn(-c2ccc(F)cc2)c2ccc(Cl)cc12 | 15.8 µM | –
CC1=C2C3OC(=O)C(C)C3C(O)CC2(C)C=CC1=O (stereo not drawn) | 110 µM | –
CC(O)c1cn(-c2ccc(F)cc2)c2ccc(Cl)cc12 (stereo not drawn) | – | 2.34
CCCCc1oc2ccc(NS(C)(=O)=O)cc2c1C(=O)c1ccc(OCCCN(CCCC)CCCC)cc1 [DRONEDARONE] | 0.316 µM | –
CCC(=O)c1cn(-c2ccc(F)cc2)c2ccc(Cl)cc12 | – | 2.7
Fc1ccc(-n2cc(C3CCN(CCN4CCN=C4S)CC3)c3ccccc32)cc1 | 0.00617 µM | –
CCC1OC(=O)C(C)C(OC2CC(C)(OC)C(O)C(C)O2)C(C)C(OC2OC(C)CC(N(C)C)C2O)C(C)(O)CC(C)/C(=N/OCOCCOC)C(C)C(O)C1(C)O (stereo not drawn) | 36.3 µM | –
